In article PMC11432330, “Novel Drug-like HsrA Inhibitors Exhibit Potent Narrow-Spectrum Antimicrobial Activities against Helicobacter pylori” (International Journal of Molecular Sciences, 2024):

Test system: H. pylori HsrA
Experiment: Fluorescence-based thermal shift assay (HTS of Maybridge HitFinder library) for HsrA ligands
Type: binding, Helicobacter pylori
Conditions: 10 µM HsrA, 250 μM compound, vs DMSO controls
Experimental: High-throughput screening (HTS) of the Maybridge HitFinder^TM chemical library for H. pylori HsrA ligands was assessed by a fluorescence-based thermal shift assay, according to previously described procedures. Briefly, a reaction mixture containing 50 mM Tris-HCl (pH 8), 150 mM NaCl, 10% glycerol, 5 mM DTT, SYPRO® Orange ready-to-use fluorescent stain (Thermo Fisher Scientific) at a final concentration of 10 ×, and 10 µM HsrA was freshly prepared. Next, 90 μL was dispensed in every well of V-shape 96-well plates ABgene^TM Thermo-Fast^TM 96 (Thermo Fisher Scientific). Wells of columns 1 and 12 received 10 μL of DMSO (vehicle) and were used as the reference controls. The rest of the wells (columns 2 to 11) received 2.5 μL of four different compounds from the HitFinder library (250 μM as final concentration each). The unfolding curve corresponding to each well was registered from 25 °C to 75 °C in 1 °C steps using an Mx3005P™ qPCR System (Agilent Technologies, Inc., Santa Clara, CA, USA), and analyzed by Origin 7.0 (OriginLab, Northampton, MA, USA) using a homemade script that determined the midpoint temperature of unfolding (Tm).

Compound	ΔTm (upshift of midpoint temperature of unfolding of HsrA)
CSc1cccc(NC(=S)NCCNc2c([N+](=O)[O-])cc(C(F)(F)F)cc2[N+](=O)[O-])c1 [Ligand IV]	16 °C
N#C/C(=C\C=C\c1ccccc1)c1nc2ccccc2[nH]1 [Ligand XII]	9 °C
